Laboratory results taken from patent US10239889B1, “Pentacyclic compound” (Eisai R&D Management Co., Ltd., priority 2017, dated 2019).

Columns and labels:
[1] = tested on: rat primary septal neuron culture; experiment: Measurement of acetylcholine (ACh) release in the rat primary septal neuron culture system in the presence of NGF; format: cell-based; settings: rat primary septal neurons, with NGF, one day after compound addition, ACh by HPLC
Excerpt: Measurement of acetylcholine (ACh) release in the rat primary septal neuron culture system in the presence of NGF
(1) Rat Primary Septal Neuron Culture
The septal area was isolated from Sprague-Dawley (SD) rats (Charles River Laboratories Japan, Inc.) at a fetal age of 18 days, and cultured.
Specifically, fetuses were aseptically removed from pregnant rats under isoflurane anesthesia. The brain was extracted from each fetus, and immersed in ice-cooled L-15 medium (11415-064, Thermo Fisher Scientific). The septal area was dissected from the extracted brain under a stereoscopic microscope. The dissected septal area was subjected to enzyme treatment in an enzyme solution containing 0.25% trypsin (15050-065, Thermo Fisher Scientific) and 0.01% DNase (D5025-150KU, Sigma) at 37° C. for 30 minutes, thereby dispersing the cells. In this case, the enzyme reaction was terminated by adding inactivated horse serum (26050-088, Thermo Fisher Scientific). The enzyme-treated solution was centrifuged at 1000 rpm for 3 minutes, and the supernatant was removed. A medium in an amount of 10 mL was added to the obtained cell mass. The medium used was Dulbecco's Modified Eagle's Medium (044-29765, WAKO) supplemented with N2 supplement (17502-048, Thermo Fisher Scientific), 1 mM sodium pyruvate (11360-070, Thermo Fisher Scientific), and Penicillin-Streptomycin (15140-1221, Thermo Fisher Scientific). The cells of the cell mass to which the medium was added were redispersed by gentle pipetting, and then centrifuged again at 1000 rpm for 3 minutes, and the supernatant was removed. The medium in an amount of 10 mL was added to the obtained cell mass, and the cell dispersion was filtered through a 40-μm nylon mesh (Cell Strainer) to remove the cell mass, thereby obtaining a neuronal cell suspension. The neuronal cell suspension was diluted with the medium, and 10% inactivated bovine serum (26140-079, Thermo Fisher Scientific) and 10% inactivated horse serum were added. Thereafter, 100 μL/well of the suspension was seeded in a 96-well plate (354461, CORNING) pre-coated with poly-D-lysine so that the initial culture density was 1.4×10^5 cells/cm^2. After the seeded cells were cultured under 5% CO2-95% air in a 37° C. incubator for 2 days, the entire medium was replaced with 120 μL of fresh medium, and the cells were subsequently cultured for 5 days.
On the 7th day of culture, compound was added in the following manner. A solution of the test compound in DMSO was diluted with the medium so that the concentration was 10 times higher than the final concentration. NGF (450-01, PEPRO TECH, INC.) was prepared at 0.3 ng/mL. These two solutions were added each in an amount of 15 μL/well, and the mixture was mixed well. The final DMSO concentration was 0.1% or less. Moreover, only DMSO and NGF were added to the control group.
(3) ACh Release Measurement
One day after compound addition, an amount of ACh release was measured by HPLC in the following manner. A warmed buffer was added at 100 μL/well to the well after the medium was eliminated, and the buffer was immediately removed. Thereafter, a buffer to which 10 μm choline, 10 μm physostigmine, and 6 mM KCl were added was added at 120 μL/well. The buffer was prepared by adding 125 mM NaCl, 25 mM 4-(2-hydroxyethyl)-1-piperazineethanesulfonic acid, 1.2 mM KH2PO4, 1.2 mM MgSO4, 2.2 mM CaCl2 (2H2O), and 10 mM glucose to sterilized water, and the final pH of the solution was set to 7.4. After the 96-well plate to which the buffer was added was incubated under 5% CO2-95% air in a 37° C. incubator for 40 minutes, 80 μL of buffer was collected. An internal standard solution IPHC (5×10^−7 M) was added in an amount of 6 μL to the collected buffer, and the buffer was transferred to a tube for HPLC measurement and subjected to HPLC measurement. […]

[2] = tested on: Choline Acetyltransferase (ChAT) mRNA; experiment: Measurement of choline acetyltransferase (ChAT) mRNA expression levels in the rat septal area; format: in vivo; settings: SD rat medial septum, oral 10 mg/kg, 24 hours after administration, qPCR
Procedure: Measurement of Choline Acetyltransferase (ChAT) mRNA Expression Levels in the Rat Septal Area
(1) Compound Administration
In this study, SD male rats (Charles River Laboratories Japan, Inc.) with a body weight of about 250 to 350 g were used. The compound was dissolved in 0.01 mol/L hydrochloric acid, and orally administered.
At 24 hours after the administration of the compound, the whole brain tissue was collected under pentobarbital anesthesia. The medial septum was isolated from whole brain on ice and frozen with liquid nitrogen, and then stored at −80° C.
(3) Measurement of ChAT mRNA Expression Levels
For RNA purification, RNeasy Plus Mini Kit (#74136: QIAGEN) was used in this study. RNA purification was performed by the method described in the kit. After RNA purification, the total RNA concentration was measured by using QIAxpert Instrument (QIAGEN). cDNA was synthesized using SuperScript® VILO™ cDNA Synthesis Kit (#11754: Thermo Fisher Scientific). The synthesis of cDNA was performed by the method described in the kit. The synthesized cDNA was diluted 4 times with RNase free water, and the diluted cDNA solution was used as a sample. Taqman Universal PCR Master Mix (#4304437: Thermo Fisher Scientific), Taqman® Gene Expression Assays, INVENTORIED (#4331182: Thermo Fisher Scientific), RNase free water, and the cDNA solution were mixed in amounts of 10 μl, 1 μl, 4 μl, and 5 μl, respectively, and the resulting mixture was used as a measurement sample solution. Quantitative polymerase chain reaction (qPCR) was conducted using ABI PRISM® 7900HT (Thermo Fisher Scientific) by a fluorescence probe method. Analysis was performed by SDS 2.4 (Thermo Fisher Scientific). The results were calculated by the percentage of the amount of ChAT mRNA expression levels in the compound administration group increased from the amount of ChAT mRNA expression levels in the vehicle administration group.

Structure (SMILES)	Concentration (μM) showing a 20% or more increase from the amount of ACh in the control group [1]	Amount (%) increased from the amount of ChAT mRNA expression levels in the vehicle administration group [2]
CN1CCc2c(sc3nc4n(c(=O)c23)-c2ccc(F)cc2C(=O)N(C)C4)C1 [Example 1]	0.1 µM	73.3%
CN1CCc2c(sc3nc4n(c(=O)c23)-c2sccc2C(=O)N(C)C4)C1 [Example 3, 5,10-dimethyl-5,6,9,10,11,12-hexahydropyrido[4″,3″:4′,5′]thieno[2′,3′:4,5]pyrimido[1,2-a]thieno[3,2-f][1,4]diazepine-4,13-dione]	0.1 µM	56.4%
